Data: patent US9518901B2, “Pretreatment method of biological sample, detection method of RNA, and pretreatment kit” (KABUSHIKI KAISHA DNAFORM, priority 2011, dated 2016)

Tests used:
[1] = cited from earlier work
[2] = test system: template RNA, influenza A(H3N2) NA region 675-1075 bases; test: RT-SmartAmp nucleic acid amplification inhibition due to SDS (DNA polymerase inhibitory activity), without rhinal mucosa; type: biochemical; conditions: 0.5% Triton X-100 in reaction solution, 5 μL of 0.1% SDS solution added; FIG. 10

| Molecule | pKa [1] | nucleic acid amplification activity (mitigation of inhibition due to SDS) [2] |
| --- | --- | --- |
| O=S(=O)(O)CCN1CCOCC1 [MES] | 6.15 |  |
| Triton X-100 |  | prominent nucleic acid amplification was recognized |
